Earlier results as cited in patent US8636711B2 (priority 2010, dated 2014).

- pH value (parenteral): 11-12
SMILES: NS(=O)(=O)c1cc(C(=O)O)c(NCc2ccco2)cc1Cl [furosemide]
- tolerability (intravenous or subcutaneous routes): generally well-tolerated
